The values below are quoted from earlier work in US9724304B2, “Nanospheres for therapeutic agent delivery” (Temple University—Of The Commonwealth System of Higher …, priority 2012, dated 2017).

The conditions of this data set: at 25° C.

Converted amounts (≈) assume the structure as drawn.

One may read the aqueous solubility as the dissolved amount per volume that the medium holds. With `CC1=C(/C=C/C(C)=C/C=C/C(C)=C/C(=O)O)C(C)(C)CCC1` [ATRA, All-trans retinoic acid], the aqueous solubility is 29 µg/mL (≈ 96.5 µM).
